± gives the expanded uncertainty stated by the source.
Test: xn = mol fraction of the nth substance listed
Settings: 93.2 kPa, Liquid; for mass density: Vibrating tube method; for speed of sound: Frequency=3 MHz, Sing-around technique in a fixed-path interferometer

SMILES: CCCC(=O)[O-].CCCC[NH3+] [n-butylammonium butanoate] + CO
- mass density (303.15 K, x1 = 0.0503): 818.837 ± 4 kg/m3
- mass density (303.15 K, x1 = 0.0999): 842.076 ± 4 kg/m3
- mass density (303.15 K, x1 = 0.1491): 858.459 ± 4 kg/m3
- mass density (303.15 K, x1 = 0.2011): 871.116 ± 4 kg/m3
- mass density (303.15 K, x1 = 0.2525): 880.696 ± 4 kg/m3
- mass density (303.15 K, x1 = 0.3057): 888.274 ± 4 kg/m3
- mass density (303.15 K, x1 = 0.3476): 893.253 ± 4 kg/m3
- mass density (303.15 K, x1 = 0.3966): 898.192 ± 4 kg/m3
- mass density (303.15 K, x1 = 0.4491): 902.401 ± 4 kg/m3
- mass density (303.15 K, x1 = 0.501): 905.946 ± 4 kg/m3
- mass density (303.15 K, x1 = 0.541): 908.414 ± 4 kg/m3
- mass density (303.15 K, x1 = 0.5913): 910.846 ± 4 kg/m3
- mass density (303.15 K, x1 = 0.6445): 913.329 ± 4 kg/m3
- mass density (303.15 K, x1 = 0.6895): 915.128 ± 4 kg/m3
- mass density (303.15 K, x1 = 0.7391): 916.93 ± 4 kg/m3
- mass density (303.15 K, x1 = 0.8007): 918.855 ± 4 kg/m3
- mass density (303.15 K, x1 = 0.8243): 919.611 ± 4 kg/m3
- mass density (303.15 K, x1 = 0.8973): 921.292 ± 4 kg/m3
- mass density (303.15 K, x1 = 0.932): 922.195 ± 4 kg/m3
- mass density (303.15 K, x1 = 1): 922.217 ± 4 kg/m3
- speed of sound (308.15 K, x1 = 0.0503): 1139.3 ± 5.2 m/s
- speed of sound (308.15 K, x1 = 0.0999): 1185.5 ± 5.2 m/s
- speed of sound (308.15 K, x1 = 0.1491): 1219.9 ± 5.2 m/s
- speed of sound (308.15 K, x1 = 0.2011): 1247.4 ± 5.2 m/s
- speed of sound (308.15 K, x1 = 0.2525): 1268.5 ± 5.2 m/s
- speed of sound (308.15 K, x1 = 0.3057): 1285.8 ± 5.2 m/s
- speed of sound (308.15 K, x1 = 0.3476): 1297.2 ± 5.2 m/s
- speed of sound (308.15 K, x1 = 0.3966): 1308 ± 5.2 m/s
- speed of sound (308.15 K, x1 = 0.4491): 1317.5 ± 5.2 m/s
- speed of sound (308.15 K, x1 = 0.501): 1325.7 ± 5.2 m/s
- speed of sound (308.15 K, x1 = 0.541): 1331.3 ± 5.2 m/s
- speed of sound (308.15 K, x1 = 0.5913): 1336.9 ± 5.2 m/s
- speed of sound (308.15 K, x1 = 0.6445): 1342.3 ± 5.2 m/s
- speed of sound (308.15 K, x1 = 0.6895): 1346.9 ± 5.2 m/s
- speed of sound (308.15 K, x1 = 0.7391): 1350.9 ± 5.2 m/s
- speed of sound (308.15 K, x1 = 0.8007): 1355.8 ± 5.2 m/s
- speed of sound (308.15 K, x1 = 0.8243): 1357.8 ± 5.3 m/s
- speed of sound (308.15 K, x1 = 0.8973): 1362.9 ± 5.3 m/s
- speed of sound (308.15 K, x1 = 0.932): 1365.5 ± 5.3 m/s
- speed of sound (308.15 K, x1 = 1): 1371.5 ± 5.3 m/s
- mass density (308.15 K, x1 = 0.0503): 814.456 ± 4 kg/m3
- mass density (308.15 K, x1 = 0.0999): 837.934 ± 4 kg/m3
- mass density (308.15 K, x1 = 0.1491): 854.49 ± 4 kg/m3
- mass density (308.15 K, x1 = 0.2011): 867.265 ± 4 kg/m3
- mass density (308.15 K, x1 = 0.2525): 876.953 ± 4 kg/m3
- mass density (308.15 K, x1 = 0.3057): 884.609 ± 4 kg/m3
- mass density (308.15 K, x1 = 0.3476): 889.68 ± 4 kg/m3
- mass density (308.15 K, x1 = 0.3966): 894.632 ± 4 kg/m3
- mass density (308.15 K, x1 = 0.4491): 898.901 ± 4 kg/m3
- mass density (308.15 K, x1 = 0.501): 902.476 ± 4 kg/m3
- mass density (308.15 K, x1 = 0.541): 904.968 ± 4 kg/m3
- mass density (308.15 K, x1 = 0.5913): 907.442 ± 4 kg/m3
- mass density (308.15 K, x1 = 0.6445): 909.923 ± 4 kg/m3
- mass density (308.15 K, x1 = 0.6895): 911.737 ± 4 kg/m3
- mass density (308.15 K, x1 = 0.7391): 913.559 ± 4 kg/m3
- mass density (308.15 K, x1 = 0.8007): 915.534 ± 4 kg/m3
- mass density (308.15 K, x1 = 0.8243): 916.299 ± 4 kg/m3
- mass density (308.15 K, x1 = 0.8973): 918.007 ± 4 kg/m3
- mass density (308.15 K, x1 = 0.932): 918.913 ± 4 kg/m3
- mass density (308.15 K, x1 = 1): 918.88 ± 4 kg/m3
- speed of sound (313.15 K, x1 = 0.0503): 1123.3 ± 5.2 m/s
- speed of sound (313.15 K, x1 = 0.0999): 1169.7 ± 5.2 m/s
- speed of sound (313.15 K, x1 = 0.1491): 1204.1 ± 5.2 m/s
- speed of sound (313.15 K, x1 = 0.2011): 1231.6 ± 5.2 m/s
- speed of sound (313.15 K, x1 = 0.2525): 1252.7 ± 5.2 m/s
- speed of sound (313.15 K, x1 = 0.3057): 1270 ± 5.2 m/s
- speed of sound (313.15 K, x1 = 0.3476): 1281.4 ± 5.2 m/s
- speed of sound (313.15 K, x1 = 0.3966): 1292.1 ± 5.2 m/s
- speed of sound (313.15 K, x1 = 0.4491): 1301.7 ± 5.2 m/s
- speed of sound (313.15 K, x1 = 0.501): 1310 ± 5.2 m/s
- speed of sound (313.15 K, x1 = 0.541): 1315.4 ± 5.2 m/s
- speed of sound (313.15 K, x1 = 0.5913): 1321 ± 5.2 m/s
- speed of sound (313.15 K, x1 = 0.6445): 1326.3 ± 5.2 m/s
- speed of sound (313.15 K, x1 = 0.6895): 1330.8 ± 5.2 m/s
- speed of sound (313.15 K, x1 = 0.7391): 1334.8 ± 5.2 m/s
- speed of sound (313.15 K, x1 = 0.8007): 1339.5 ± 5.2 m/s
- speed of sound (313.15 K, x1 = 0.8243): 1341.4 ± 5.2 m/s
- speed of sound (313.15 K, x1 = 0.8973): 1346.2 ± 5.3 m/s
- speed of sound (313.15 K, x1 = 0.932): 1348.5 ± 5.3 m/s
- speed of sound (313.15 K, x1 = 1): 1353.6 ± 5.3 m/s
- mass density (313.15 K, x1 = 0.0503): 810.048 ± 4 kg/m3
- mass density (313.15 K, x1 = 0.0999): 833.767 ± 4 kg/m3
- mass density (313.15 K, x1 = 0.1491): 850.482 ± 4 kg/m3
- mass density (313.15 K, x1 = 0.2011): 863.431 ± 4 kg/m3
- mass density (313.15 K, x1 = 0.2525): 873.199 ± 4 kg/m3
- mass density (313.15 K, x1 = 0.3057): 880.93 ± 4 kg/m3
- mass density (313.15 K, x1 = 0.3476): 886.019 ± 4 kg/m3
- mass density (313.15 K, x1 = 0.3966): 891.1 ± 4 kg/m3
- mass density (313.15 K, x1 = 0.4491): 895.415 ± 4 kg/m3
- mass density (313.15 K, x1 = 0.501): 899.051 ± 4 kg/m3
- mass density (313.15 K, x1 = 0.541): 901.531 ± 4 kg/m3
- mass density (313.15 K, x1 = 0.5913): 904.079 ± 4 kg/m3
- mass density (313.15 K, x1 = 0.6445): 906.495 ± 4 kg/m3
- mass density (313.15 K, x1 = 0.6895): 908.371 ± 4 kg/m3
- mass density (313.15 K, x1 = 0.7391): 910.183 ± 4 kg/m3
- mass density (313.15 K, x1 = 0.8007): 912.194 ± 4 kg/m3
- mass density (313.15 K, x1 = 0.8243): 912.971 ± 4 kg/m3
- mass density (313.15 K, x1 = 0.8973): 914.707 ± 4 kg/m3
- mass density (313.15 K, x1 = 0.932): 915.625 ± 4 kg/m3
- mass density (313.15 K, x1 = 1): 915.567 ± 4 kg/m3

From the NIST ThermoML archive (doi:10.1016/j.jct.2016.09.007)
